Reference: ChEMBL document CHEMBL5316282, “Small-Molecule Cyanamide Pan-TEAD·YAP1 Covalent Antagonists” (J Med Chem, 2023)
pIC50: −log10 of the molar value. Activity calls are given as the source filed them. No cut-off for these calls is given here.

Assays:
[1] = target: T1, Transcriptional enhancer factor TEF-4 (Homo sapiens, UniProt Q15562); assay: Displacement of FAM- labeled YAP1 peptide (60 to 99 residues) from human TEAD2 (217 to 447 residues) expressed in Escherichia coli BL21 (DE3) cells incubated for 24 hrs by fluorescence polarization-based competitive binding assay
T1 sequence (Q15562 whole entry, the tested form may be a part): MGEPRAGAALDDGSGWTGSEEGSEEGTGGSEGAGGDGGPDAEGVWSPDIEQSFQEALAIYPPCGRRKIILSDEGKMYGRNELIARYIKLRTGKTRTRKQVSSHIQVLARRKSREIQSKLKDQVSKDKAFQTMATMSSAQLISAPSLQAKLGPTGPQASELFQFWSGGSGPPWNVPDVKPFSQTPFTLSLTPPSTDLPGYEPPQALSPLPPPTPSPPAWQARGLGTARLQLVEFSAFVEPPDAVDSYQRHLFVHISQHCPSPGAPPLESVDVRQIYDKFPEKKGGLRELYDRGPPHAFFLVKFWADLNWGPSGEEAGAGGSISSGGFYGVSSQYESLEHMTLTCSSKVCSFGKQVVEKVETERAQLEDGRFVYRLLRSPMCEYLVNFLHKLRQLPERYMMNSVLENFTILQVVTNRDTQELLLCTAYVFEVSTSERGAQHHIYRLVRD

[2] = target: T2, Transcriptional enhancer factor TEF-1 (Homo sapiens, UniProt P28347); assay: Displacement of FAM- labeled YAP1 peptide (60 to 99 residues) from human TEAD1 (209 to 426 residues) expressed in Escherichia coli BL21 (DE3) cells incubated for 24 hrs by fluorescence polarization-based competitive binding assay; details: read-out: IC50
T2 sequence (P28347 whole entry, the tested form may be a part): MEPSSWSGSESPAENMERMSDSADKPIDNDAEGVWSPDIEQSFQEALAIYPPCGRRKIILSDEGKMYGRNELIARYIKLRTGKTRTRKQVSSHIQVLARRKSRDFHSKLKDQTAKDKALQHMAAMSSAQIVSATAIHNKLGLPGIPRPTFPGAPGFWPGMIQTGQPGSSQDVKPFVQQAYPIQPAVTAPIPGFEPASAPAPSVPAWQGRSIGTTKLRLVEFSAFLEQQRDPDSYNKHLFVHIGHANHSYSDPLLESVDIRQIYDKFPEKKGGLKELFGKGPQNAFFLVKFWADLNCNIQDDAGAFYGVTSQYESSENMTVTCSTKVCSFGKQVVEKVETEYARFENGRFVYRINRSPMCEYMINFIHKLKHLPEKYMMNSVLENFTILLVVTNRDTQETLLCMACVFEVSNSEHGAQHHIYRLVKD

[3] = Antiproliferative activity against human ST88-14 cells assessed as reduction in cell viability incubated for 3 days by MTS assay; assay type: functional, cell-based; details: ST88-14, 72 h
[4] = target: T3, YAP1-TEAD4 (Homo sapiens) (UniProt P46937+Q15561); assay: Inhibition of NanoLuc-tagged TEAD4 (unknown origin)-Halo-Tagged YAP1 (unknown origin) protein-protein interaction transfected in HEK293 cells using furimazine as substrate at 1.1 to 30 uM incubated for 24 hrs by NanoBRET binding assay; assay type: cell-based; details: dose 1.1-30 µM
MDA-MB-468 [5] = assay: Inhibition of TEAD in human MDA-MB-468 cells assessed as maximal inhibition of CTGF transcriptional level at 0.01 to 100 uM incubated for 24 hrs by qRT-PCR assay relative to control; assay type: cell-based; details: dose 0.01-100 µM
SAOS-2 = assay: Antiproliferative activity against human SAOS-2 cells assessed as reduction in cell viability incubated for 3 days by MTS assay; assay type: functional, cell-based; details: SAOS-2, 72 h
[6] = target: T1, Transcriptional enhancer factor TEF-4; assay: Inhibition of TEAD2 (unknown origin) transfected in human HEK293 cells co-transfected with renilla plasmid assessed as maximum inhibition of transcriptional activity at 10 uM incubated for 24 hrs by dual Glo-luciferase reporter assay relative to control; assay type: cell-based
[7] = target: T4, Transcriptional coactivator YAP1/Transcriptional enhancer factor TEF-1 (Homo sapiens) (UniProt P46937+P28347); assay: Inhibition of NanoLuc-tagged TEAD1 (unknown origin)-Halo-Tagged YAP1 (unknown origin) protein-protein interaction transfected in HEK293 cells using furimazine as substrate at 10 uM incubated for 2 to 24 hrs by NanoBRET binding assay; assay type: cell-based; details: time 2-24 hrs, TDE = time-dependent effect
T4 sequence (P28347 whole entry, looked up, the tested form may be a part): as the sequence (P28347 whole entry, the tested form may be a part) above
T4 sequence (P46937 whole entry, looked up, the tested form may be a part): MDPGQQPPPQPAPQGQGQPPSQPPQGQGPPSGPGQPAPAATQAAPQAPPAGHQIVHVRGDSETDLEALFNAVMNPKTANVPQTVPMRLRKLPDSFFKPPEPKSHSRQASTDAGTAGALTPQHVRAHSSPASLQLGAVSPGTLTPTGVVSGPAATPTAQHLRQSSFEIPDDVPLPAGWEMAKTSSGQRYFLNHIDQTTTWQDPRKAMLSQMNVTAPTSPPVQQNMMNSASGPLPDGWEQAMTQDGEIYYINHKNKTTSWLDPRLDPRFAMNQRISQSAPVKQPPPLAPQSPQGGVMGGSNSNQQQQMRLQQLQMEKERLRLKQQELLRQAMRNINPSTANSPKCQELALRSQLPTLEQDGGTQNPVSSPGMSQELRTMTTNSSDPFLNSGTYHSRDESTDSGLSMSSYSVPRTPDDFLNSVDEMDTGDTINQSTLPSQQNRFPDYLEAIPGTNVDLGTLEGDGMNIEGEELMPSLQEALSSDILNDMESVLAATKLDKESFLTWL

[8] = target: T1, Transcriptional enhancer factor TEF-4; assay: Displacement of FAM- labeled YAP1 peptide (60 to 99 residues) from human TEAD2 (217 to 447 residues) expressed in Escherichia coli BL21 (DE3) cells assessed as maximum inhibition at 0.2 to 100 uM incubated for 24 hrs by fluorescence polarization-based competitive binding assay relative to control; details: dose 0.2-100 µM
[9] = target: T2, Transcriptional enhancer factor TEF-1; assay: Inhibition of TEAD1 (unknown origin) transfected in human HEK293 cells co-transfected with renilla plasmid assessed as inhibition of transcriptional activity incubated for 24 hrs by dual Glo-luciferase reporter assay; assay type: cell-based
[10] = target: T5, Transcriptional enhancer factor TEF-5 (Homo sapiens, UniProt Q99594); assay: Inhibition of TEAD3 (unknown origin) transfected in human HEK293 cells co-transfected with renilla plasmid assessed as inhibition of transcriptional activity incubated for 24 hrs by dual Glo-luciferase reporter assay; assay type: cell-based
T5 sequence (Q99594 whole entry): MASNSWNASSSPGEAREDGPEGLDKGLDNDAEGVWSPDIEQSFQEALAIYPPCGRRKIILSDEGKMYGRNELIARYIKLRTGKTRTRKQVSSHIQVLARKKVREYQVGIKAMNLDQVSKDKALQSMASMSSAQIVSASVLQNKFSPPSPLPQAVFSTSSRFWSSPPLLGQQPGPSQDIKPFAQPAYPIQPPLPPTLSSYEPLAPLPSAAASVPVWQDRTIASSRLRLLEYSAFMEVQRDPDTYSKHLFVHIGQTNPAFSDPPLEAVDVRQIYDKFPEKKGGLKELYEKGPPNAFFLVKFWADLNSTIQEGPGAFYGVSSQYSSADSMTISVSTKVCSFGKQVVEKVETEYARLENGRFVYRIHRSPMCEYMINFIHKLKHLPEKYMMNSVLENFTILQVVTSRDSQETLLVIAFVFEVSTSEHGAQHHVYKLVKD

[11] = target: T6, Transcriptional enhancer factor TEF-3 (Homo sapiens, UniProt Q15561); assay: Inhibition of TEAD4 (unknown origin) transfected in human HEK293 cells co-transfected with renilla plasmid assessed as inhibition of transcriptional activity incubated for 24 hrs by dual Glo-luciferase reporter assay; assay type: cell-based; details: read-out: IC50
T6 sequence (Q15561 whole entry): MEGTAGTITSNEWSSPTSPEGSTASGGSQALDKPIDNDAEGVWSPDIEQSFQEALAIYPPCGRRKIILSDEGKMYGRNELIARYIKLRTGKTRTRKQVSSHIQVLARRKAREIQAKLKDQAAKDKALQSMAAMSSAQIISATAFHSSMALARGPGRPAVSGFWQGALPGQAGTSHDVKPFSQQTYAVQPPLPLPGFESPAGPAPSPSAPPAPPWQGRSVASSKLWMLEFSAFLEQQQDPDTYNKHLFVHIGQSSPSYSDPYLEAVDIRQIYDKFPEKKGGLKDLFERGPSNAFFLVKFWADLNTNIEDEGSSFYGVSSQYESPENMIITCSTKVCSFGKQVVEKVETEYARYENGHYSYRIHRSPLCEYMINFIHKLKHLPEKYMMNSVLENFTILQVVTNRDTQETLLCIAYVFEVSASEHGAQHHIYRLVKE

[12] = target: T3, YAP1-TEAD4 (Homo sapiens); assay: Inhibition of NanoLuc-tagged TEAD4 (unknown origin)-Halo-Tagged YAP1 (unknown origin) protein-protein interaction transfected in HEK293 cells using furimazine as substrate at 0.9 to 30 uM incubated for 24 hrs by NanoBRET binding assay; assay type: cell-based; details: dose 0.9-30 µM
Huh-7 = assay: Antiproliferative activity against human Huh-7 cells assessed as reduction in cell viability incubated for 3 days by MTS assay; assay type: functional, cell-based; details: Huh-7, 72 h
MDA-MB-468 [13] = assay: Antiproliferative activity against human MDA-MB-468 cells assessed as maximum inhibition of cell viability incubated for 3 days by MTS assay relative to control; assay type: functional, cell-based; details: time 3.0 day
[14] = target: T6, Transcriptional enhancer factor TEF-3; assay: Inhibition of TEAD4 (unknown origin) transfected in human HEK293 cells co-transfected with renilla plasmid assessed as maximum inhibition of transcriptional activity at 0.01 to 100 uM incubated for 24 hrs by dual Glo-luciferase reporter assay relative to control; assay type: cell-based; details: dose 0.01-100 µM
[15] = target: T4, Transcriptional coactivator YAP1/Transcriptional enhancer factor TEF-1 (Homo sapiens); assay: Inhibition of NanoLuc-tagged TEAD1 (unknown origin)-Halo-Tagged YAP1 (unknown origin) protein-protein interaction transfected in HEK293 cells using furimazine as substrate at 1.1 to 30 uM incubated for 24 hrs by NanoBRET binding assay; assay type: cell-based; details: dose 1.1-30 µM
[16] = Inhibition of TEAD in human MDA-MB-468 cells assessed as inhibition of CTGF transcriptional level incubated for 24 hrs by qRT-PCR assay; assay type: cell-based; details: Homo sapiens, MDA-MB-468, 24 h; read-out: IC50
[17] = tested on: Transcriptional enhancer factor TEF-3 (Homo sapiens), Q15561 [C367S]; assay: Displacement of FAM- labeled YAP1 peptide (60 to 99 residues) from human TEAD4 (217 to 434 residues) C367S mutant expressed in Escherichia coli BL21 (DE3) cells at 0.2 to 100 uM incubated for 24 hrs by fluorescence polarization-based competitive binding assay; details: dose 0.2-100 µM
Sequence of Transcriptional enhancer factor TEF-3 (Homo sapiens), Q15561 [C367S] (Q15561 whole entry C367S, the tested form may be a part): as the sequence (Q15561 whole entry) above, with C367S counted along it

[18] = Antiproliferative activity against human ST88-14 cells assessed as maximum inhibition of cell viability incubated for 3 days by MTS assay relative to control; assay type: functional; details: time 3 day
[19] = Antiproliferative activity against human 90-8 cells assessed as reduction in cell viability incubated for 3 days by MTS assay; assay type: functional, cell-based; details: 90-8, 72 h
[20] = target: T3, YAP1-TEAD4 (Homo sapiens); assay: Inhibition of myc-tagged TEAD4 (unknown origin)-Flag-Tagged YAP1 (unknown origin) protein-protein interaction transfected in HEK293 cells using furimazine as substrate at 1.1 to 11 uM incubated for 24 hrs by pull-down coimmunoprecipitation assay; assay type: cell-based; details: dose 1.1-11 µM
[21] = Antiproliferative activity against human SaOS-LM7 cells assessed as maximum inhibition of cell viability incubated for 3 days by MTS assay relative to control; assay type: functional; details: time 3 day
[22] = Antiproliferative activity against human 90-8 cells assessed as maximum inhibition of cell viability incubated for 3 days by MTS assay relative to control; assay type: functional; details: time 3 day
[23] = target: T5, Transcriptional enhancer factor TEF-5; assay: Displacement of FAM- labeled YAP1 peptide (60 to 99 residues) from human TEAD3 (210 to 427 residues) expressed in Escherichia coli BL21 (DE3) cells incubated for 24 hrs by fluorescence polarization-based competitive binding assay
[24] = target: T1, Transcriptional enhancer factor TEF-4; assay: Inhibition of TEAD2 (unknown origin) transfected in human HEK293 cells co-transfected with renilla plasmid assessed as inhibition of transcriptional activity incubated for 24 hrs by dual Glo-luciferase reporter assay; assay type: cell-based
[25] = Antiproliferative activity against human SaOS-LM7 cells assessed as reduction in cell viability incubated for 3 days by MTS assay; assay type: functional, cell-based; details: SaOS-LM7, 72 h
[26] = target: T3, YAP1-TEAD4 (Homo sapiens); assay: Inhibition of NanoLuc-tagged TEAD4 (unknown origin)-Halo-Tagged YAP1 (unknown origin) protein-protein interaction transfected in HEK293 cells using furimazine as substrate at 10 uM incubated for 2 to 24 hrs by NanoBRET binding assay; assay type: cell-based; details: time 2-24 hrs, TDE = time-dependent effect

**Q.** Which results are given for `N#CN1Cc2cccc(Nc3cccc(C(F)(F)F)c3)c2C1`?
**A.** pIC50 [1]: 5.92; pIC50 [2]: 6.05; pIC50 [3]: 7.52; inhibition [4]: Active; Imax (MDA-MB-468 [5]): 65.7%; pIC50 (SAOS-2): 7.00; inhibition [6]: 40%; inhibition [7]: Tde; Imax [8]: 34%; pIC50 [9]: 5.29; pIC50 [10]: 5.66; pIC50 [11]: 5.30; inhibition [12]: Active; pIC50 (Huh-7): 7.00; Imax (MDA-MB-468 [13]): inactive; Imax [14]: 46.6%; inhibition [15]: Active; pIC50 [16]: 6.22; inhibition [17]: inactive; Imax [18]: 31%; pIC50 [19]: 5.46; inhibition [20]: Dose-Dependent Effect; Imax [21]: 60.7%; Imax [22]: 51.4%; IC50 [23]: Not Active; pIC50 [24]: 5.57; pIC50 [25]: 6.70; inhibition [26]: Tde
